Experiments:
[1] = target: T1, hemichannel activity in HCMVEC cells (Homo sapiens, UniProt P17302); assay: Whole-cell voltage clamp, hCMVEC cells; format: cell-based; details: for hemichannel activity: 50 μM
T1 construct: isolated human cerebral microvascular endothelial cells (hCMVEC); endogenous in cells; host or cells: hCMVEC
Description: Whole-cell voltage clamp studies were conducted on connexin deficient HeLa cells, Connexin43 transfected HeLa cells and isolated human cerebral microvascular endothelial cells (hCMVEC).
HCMVEC Cells were placed into an extracellular artificial cerebral spinal fluid solution containing (in mM): 144 NaCl, 3.3 KCl, 1.8 CaCl2, 1.8 MgCl2, 10 mM glucose, pH: 7.385 at temperature 37° C. The intracellular pipette solution contained (in mM): 130 KCl, 10 sodium aspartate, 0.26 CaCl2, 2 EGTA, 5 tetraethylammonium-Cl, 1 MgCl2,3 MgATP, 5 Hepes at pH 7.2; and was kept on ice to prevent MgATP breakdown. Pipette resistance was 3.4MΩ with seal resistance=1.3 GΩ. Voltage and perfusion protocols are conducted simultaneously, with cells continuously perfused. Recordings for analysis were taken before Tonabersat perfusion, during and after washout. For channel block studies, 50 μM Tonabersat was washed in for three mins prior to recording, and subsequently washed out three mins before taking the washout recordings.

retinal ganglion cells = assay: In vivo retinal ischaemia-reperfusion model, Tonabersat; design: species or system Wistar rats; details: 7 days; for Retinal ganglion cell density: ischaemic eyes, mean±standard error
Description: Animals were anesthetized with an intraperitoneal injection of ketamine (60 mg/kg) and medetomidine hydrochloride (0.4 mg/kg) and the cornea anaesthetized with oxybuprocaine hydrochloride (0.4%). The technique of retinal ischaemia-reperfusion has previously been described (D. Sun, et al., The Journal of comparative neurology 505, 114 (Nov. 1, 2007)). Briefly, the left anterior chamber was cannulated with a 30-gauge infusion needle connected by silicone tubing to a reservoir of sterile 0.9% saline. Cannulation was performed using a stereotaxic manipulator arm to avoid injury to the corneal endothelium, iris, or lens. The intraocular pressure of the cannulated eye was raised to 120 mmHg for 60 minutes by elevating the saline reservoir. Retinal ischaemia-reperfusion was confirmed by pallor of the posterior segment. After 60 minutes, the cannula was removed and reperfusion of the retinal vessels was confirmed by ophthalmoscopy. Three experimental arms were applied at the end of 60 minutes of ischaemia. These included: no treatment (n=6), 10 mg/kg Tonabersat (n=6), or 1 mg/kg Tonabersat (n=4). Systemic delivery of 0.25 mL of a 10 mg/ml or 1 mg/ml Tonabersat solution diluted in 40% PEG, 60% cyclodextrin solution was achieved through intraperitoneal delivery at the start of reperfusion. A final blood Tonabersat concentration of 0.319 mM or 0.0319 mM was intended, assuming a blood volume of 20 mL and total systemic uptake of peptide. Animals were euthanized with CO2 at 7 days after reperfusion. One uninjured animal was euthanized to obtain uninjured retinas as normal controls.
After euthanasia eyes were enucleated, and the cornea, lens, and vitreous humour removed. The dorsal aspect of the retina was notched to retain orientation. The retina and sclera were fixed in 4% PFA in PBS for 60 minutes at room temperature (RT). The retina was then carefully removed from the sclera and permeabilized via incubation in 0.5% Triton-X100 in PBS solution for 15 minutes at […] Retinas were mounted onto SuperFrost Plus slides using citifluor mounting medium, and imaged.
Two fields in each quadrant of each retina were imaged giving a total of eight images per retina. This method insured similar locations were assessed between different eyes and avoided any possible area bias present in the retina. Retinal ganglion cell (RGC) labelling was imaged at 10× magnification. […] Spots of one or two pixels that resulted from noise and artefacts that were clearly not RGC of origin were excluded during particle counts. RGC density was calculated as the number of RGCs per cm2.

T1 sequence (P17302 2-382): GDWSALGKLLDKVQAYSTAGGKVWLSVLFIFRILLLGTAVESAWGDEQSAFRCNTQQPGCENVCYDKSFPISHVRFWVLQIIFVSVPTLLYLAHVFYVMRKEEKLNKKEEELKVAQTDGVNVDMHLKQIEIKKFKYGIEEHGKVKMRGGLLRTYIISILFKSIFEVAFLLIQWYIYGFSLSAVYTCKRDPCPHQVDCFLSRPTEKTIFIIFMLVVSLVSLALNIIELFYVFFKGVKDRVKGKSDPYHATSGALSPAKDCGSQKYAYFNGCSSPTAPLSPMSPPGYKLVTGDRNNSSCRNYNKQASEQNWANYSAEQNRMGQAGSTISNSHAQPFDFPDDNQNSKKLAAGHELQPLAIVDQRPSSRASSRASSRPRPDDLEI

Structure (SMILES): CC(=O)c1ccc2c(c1)[C@H](NC(=O)c1ccc(F)c(Cl)c1)[C@H](O)C(C)(C)O2 [Tonabersat, N-[(3S,4S)-6-acetyl-3-hydroxy-2,2-dimethyl-3,4-dihydrochromen-4-yl]-3-chloro-4-fluorobenzamide]
- time to block connexin hemichannels [1]: within one minute
- hemichannel activity ([1]; after three minutes of washout): some activity returning after washout
- hemichannel activity ([1]; during incubation): almost completely abolishes hemichannel activity
- RGC loss compared to normal controls (retinal ganglion cells; 1 mg/kg intraperitoneal at start of reperfusion): 18%
- Retinal ganglion cell density (retinal ganglion cells; 1 mg/kg intraperitoneal): 199927±26058 cells/cm2
- RGC loss compared to normal controls (retinal ganglion cells; 10 mg/kg intraperitoneal at start of reperfusion): 35%
- Retinal ganglion cell density (retinal ganglion cells; 10 mg/kg intraperitoneal): 158739±26370 cells/cm2
